Test results taken from PMC7179673, “A New Series of Carlactonoic Acid Based Strigolactone Analogs for Fundamental and Applied Research” (Frontiers in Plant Science, 2020).
Read-outs that look alike come from different tables or passages of the source.

Assays:
[1] = molecular target: T1, ShHTL7 (Striga hermonthica Hyposensitive to Light) (Striga hermonthica, UniProt A0A0M3PNA2); assay: competitive YLG (Yoshimulactone Green) hydrolysis assay with purified protein; type: biochemical
T1 sequence (A0A0M3PNA2 1-271): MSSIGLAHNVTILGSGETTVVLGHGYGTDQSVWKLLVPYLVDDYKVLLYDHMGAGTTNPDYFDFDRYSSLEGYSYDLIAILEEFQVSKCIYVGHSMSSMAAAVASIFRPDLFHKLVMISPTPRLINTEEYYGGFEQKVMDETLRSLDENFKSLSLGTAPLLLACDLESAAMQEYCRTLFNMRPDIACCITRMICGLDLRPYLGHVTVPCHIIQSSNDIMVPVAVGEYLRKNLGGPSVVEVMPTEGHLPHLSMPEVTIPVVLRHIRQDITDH

OsD14 = molecular target: T2, OsD14 (Oryza sativa, UniProt Q10QA5); assay: as above; type: biochemical
T2 construct: gene D14
T2 sequence (Q10QA5 1-318): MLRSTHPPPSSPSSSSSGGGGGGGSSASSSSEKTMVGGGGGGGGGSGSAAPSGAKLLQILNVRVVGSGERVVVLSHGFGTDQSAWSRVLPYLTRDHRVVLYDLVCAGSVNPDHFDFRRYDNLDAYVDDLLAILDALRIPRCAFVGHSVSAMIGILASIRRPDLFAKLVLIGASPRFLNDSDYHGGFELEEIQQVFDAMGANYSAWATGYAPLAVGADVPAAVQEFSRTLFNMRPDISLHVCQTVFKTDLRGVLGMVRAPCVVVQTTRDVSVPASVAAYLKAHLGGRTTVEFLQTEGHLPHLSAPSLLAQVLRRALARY

Row | Compound | IC50 ([1]; read-out: IC50) | IC50 [1] | IC50 (OsD14)
1 | CC1=CC(O/C=C(\C(=O)N(C)C)c2ccccc2)OC1=O (stereo not drawn) [MP16, (Z)-N,N-Dimethyl-3-((4-methyl-5-oxo-2,5-dihydrofuran-2-yl)oxy)-2-phenylacrylamide] | 4370 ± 210 nM |  | 
2 | CC1=C[C@H](O/C=C2/C(=O)O[C@@H]3c4ccccc4C[C@H]23)OC1=O (racemic) [GR24, rac-GR24] |  | 980 ± 260 nM | 1040 ± 90 nM
